What all share (format): functional, cell-based
The subject of experiment [1] is HT-29. Put plainly: Cytotoxicity against human HT-29 cells at 10 to 100 uM after 48 hrs by MTT assay.
Another experiment relates to HCT-116. Put plainly: Cytotoxicity against human HCT116 cells at 10 to 100 uM after 48 hrs by MTT assay. Background: Tetrazolium assays rely on reduction of a dye to a coloured formazan, in cell work by metabolically active cells.
Experiment [2] concerns A549. Put plainly: Cytotoxicity against human A549 cells at 10 to 100 uM after 48 hrs by MTT assay.
Experiment [3] relates to MCF7. Put plainly: Cytotoxicity against human MCF7 cells at 10 to 100 uM after 48 hrs by MTT assay.
Experiment [4] relates to HT-29. Put plainly: Cytotoxicity against human HT-29 cells after 48 hrs by MTT assay.
For experiment [5], the system named is MCF7. Put plainly: Cytotoxicity against human MCF7 cells after 48 hrs by MTT assay.
The subject of experiment [6] is A549. Put plainly: Cytotoxicity against human A549 cells after 48 hrs by MTT assay.

Activity calls are given as the source filed them. No cut-off for these calls is given here.

The text below walks through data of ChEMBL document CHEMBL1955786, “New antitumor compounds from Carya cathayensis” (Bioorg Med Chem Lett, 2012).

Take `COc1cc(O)cc(C=O)c1`: the outcome in the experiment on HT-29 [1], in the experiment on HCT-116, in the experiment with A549 [2] and in the experiment on MCF7 [3] was Active.

For `COc1cc([C@@H]2Oc3c(OC)cc(/C=C/C=O)cc3[C@H]2CO)ccc1O`, the Activity entry with HT-29 [4], in the experiment on MCF7 [5] and with A549 [6] was “Dose-dependent effect” throughout. Further, the outcome with HT-29 [1], in the experiment on HCT-116, with A549 [2] and in the experiment with MCF7 [3] was Active.

For `O=Cc1ccc(O)cc1`, the result in the experiment with HT-29 [1], with HCT-116, in the experiment on A549 [2] and in the experiment with MCF7 [3] was Active.

Consider `OC[C@@H]1[C@@H](Cc2ccc(O)cc2)CO[C@H]1c1ccc(O)cc1`, for which the Activity result in the experiment on HT-29 [4], in the experiment with MCF7 [5] and in the experiment with A549 [6] was “Dose-dependent effect” each time. The result with HT-29 [1], with A549 [2] and in the experiment on MCF7 [3] was Active. The result in the experiment with HCT-116 was inactive.

For the molecule `COc1cc([C@H]2Oc3c(OC)cc(/C=C/C=O)cc3[C@@H]2CO)ccc1O`, the Activity entry with HT-29 [4], in the experiment with MCF7 [5] and with A549 [6] was “Dose-dependent effect” in each case. Also, the result with HT-29 [1], in the experiment with HCT-116, with A549 [2] and in the experiment with MCF7 [3] was Active.

With `COc1cc(C(=O)C(CO)c2ccc(O)c(OC)c2)ccc1O` (centres undefined), the outcome in the experiment on HT-29 [1], in the experiment on HCT-116, in the experiment on A549 [2] and in the experiment on MCF7 [3] was Active.

Take `COc1cc(/C=C\C=O)ccc1O`: the Activity result in the experiment with HT-29 [4], in the experiment with MCF7 [5] and with A549 [6] was “Dose-dependent effect” each time. Besides, the result in the experiment on HT-29 [1], with HCT-116, in the experiment with A549 [2] and in the experiment on MCF7 [3] was Active.

`O=C/C=C\c1ccc(O)cc1`: the outcome in the experiment with HT-29 [1], in the experiment with HCT-116, in the experiment on A549 [2] and in the experiment with MCF7 [3] was Active.
